IC50 and IC90 data for 23 molecules are collected here from PubChem BioAssay AID434987 (Southern Research Specialized Biocontainment Screening …, 2010).

For the test, the system named is M. tuberculosis H37Rv growth inhibition with meropenem. Put plainly: dose response, H37Rv, with and without meropenem (AID 434987).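 Note: growth over 7 days at 37 °C before Alamar Blue read on day 9.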
Where [1] appears, read: M. tuberculosis H37Rv growth inhibition, measured here: IC50 without meropenem.
[2] abbreviates: M. tuberculosis H37Rv growth inhibition, measured here: IC90 without meropenem.
The mark [3] stands for this setting: measured here: IC90 with meropenem.

pIC50: −log10 of the molar value. Activity calls are given as the source filed them. The rule behind the calls is not given here.

As to `Cc1cccc(/C=N\NC(=O)c2csnn2)c1`, the pIC50 (as a rule, the negative decadic logarithm of the IC50, by convention in mol/L) was 4.40. For the same molecule, the pIC50 under setting [1] is below 4.00. The IC90 (in general, the point of the concentration-response curve where the effect stands at 90%) under setting [2] was above 100 µM. Under setting [3], this molecule showed an IC90 above 100 µM.
With `COc1ccc(CC2=C(O)c3ccccc3C(=O)C2=O)cc1`, the IC50 (commonly the concentration that gives 50% inhibition) was 47.2 µM (inactive). For the same molecule, under setting [1], the pIC50 was below 4.00. Moreover, the IC90 under setting [2] is above 100 µM. In addition, under setting [3], the IC90 was above 100 µM.
As to `COc1ccc2c(C)nc(Nc3nc(-c4ccccc4)cc(=O)[nH]3)nc2c1`, the IC50 is > 100 µM (inactive). The same molecule showed a pIC50 under setting [1] below 4.00. Under setting [2], this molecule returned an IC90 above 100 µM. This molecule displayed an IC90 under setting [3] above 100 µM.
For `CCOC(=O)COc1nc(-c2ccc(Cl)cc2)cc(-c2ccco2)c1C#N`, the pIC50 was 5.42. Besides, under setting [1], the pIC50 was below 4.00. The molecule further registered an IC90 under setting [2] above 100 µM. The same molecule returned an IC90 under setting [3] above 100 µM.
Turning to `O=C(O)CSc1ncnc2c1sc1nc(-c3ccccc3)c3c(c12)CCC3`, the pIC50 was 4.91. Under setting [1], this molecule showed a pIC50 of 4.21. The molecule further came in with an IC90 under setting [2] of 87.4 µM. For the same molecule, the 90% effect concentration (IC90) under setting [3] worked out at 14.2 µM.
Regarding `CN(C)c1ccc(/C=C/c2nc3ccccc3s2)cc1`, the pIC50 was 5.05. Under setting [1], this molecule gave a pIC50 below 4.00. For the same molecule, the IC90 under setting [2] was above 100 µM. The same molecule had an IC90 under setting [3] above 100 µM.
As to `O=C(CSC1CS(=O)(=O)c2cc([N+](=O)[O-])ccc21)NNC(=O)c1ccccc1` (configuration not stated), the pIC50 was 4.93. Under setting [1], this molecule had a pIC50 of 4.05. Also, the IC90 under setting [2] is 94.3 µM. This molecule gave an IC90 under setting [3] of 13.3 µM.
Turning to `O=C(Nc1ccccc1)c1c2c(nc3ccccc13)CCCC2`, the pIC50 is 4.77. Under setting [1], this molecule showed a pIC50 below 4.00. Under setting [2], this molecule returned an IC90 above 100 µM. In addition, the IC90 under setting [3] is above 25 µM.
`CN(c1ccc(OCC(=O)Nc2ccc3[nH]c(=O)[nH]c3c2)cc1)S(=O)(=O)c1ccc(Cl)cc1`: the IC50 is > 100 µM (inactive). Under setting [1], the pIC50 was below 4.00. Also, under setting [2], the IC90 was above 100 µM. Further, the IC90 under setting [3] was above 100 µM.
Take `Cc1onc(-c2c(Cl)cccc2Cl)c1/C(N)=N/OC(=O)C1CC1`: the pIC50 is 5.69. The molecule also gave a pIC50 under setting [1] below 4.00. For the same molecule, the IC90 under setting [2] was above 100 µM. Under setting [3], this molecule showed an IC90 above 25 µM.
`CCOC(=O)C1CCN(C(=O)c2sc3nc(C)nc(N4CCC(C)CC4)c3c2C)CC1`: the IC50 was 69.5 µM (inactive). Under setting [1], the pIC50 was 4.12. For the same molecule, the IC90 under setting [2] is above 100 µM. The same molecule had an IC90 under setting [3] above 100 µM.
Consider `CCC(CC)c1nnc(NC(=O)c2cc(-c3ccccc3)nc3ccccc23)s1`, for which the IC50 was > 100 µM (inactive). This molecule had a pIC50 under setting [1] below 4.00. This molecule returned an IC90 under setting [2] above 100 µM. For the same molecule, the IC90 under setting [3] was above 100 µM.
As to `COC(=O)c1ccc(/C=N/NC(=O)c2cccc(F)c2)cc1`, the IC50 is > 100 µM (inactive). Moreover, the pIC50 under setting [1] was below 4.00. This molecule registered an IC90 under setting [2] above 100 µM. Under setting [3], this molecule displayed an IC90 above 100 µM.
As to `COC(=O)c1c(C(=O)OC)c(C)n(Cc2ccco2)c1C`, the IC50 was 64.4 µM (inactive). The same molecule showed a pIC50 under setting [1] below 4.00. The IC90 under setting [2] was above 100 µM. Further, the IC90 under setting [3] is above 100 µM.
Regarding `COC(=O)C1=C(C)NC(=O)/C1=C\c1cc(C)n(-c2c(C)cccc2C)c1C`, the IC50 was 88 µM (inactive). Under setting [1], this molecule showed a pIC50 below 4.00. The 90% effect concentration (IC90) under setting [2] is above 100 µM. Besides, the IC90 under setting [3] stood at 99.8 µM.
On to `Cc1nnnn1/C(=C\c1ccccc1)C(=O)OCC(=O)NC1CCCCC1`, for which the IC50 was 8.62 µM (inactive). For the same molecule, the negative-log IC50 (pIC50) under setting [1] was 4.74. Under setting [2], the IC90 came to 27 µM. Besides, the IC90 under setting [3] stood at 17.6 µM.
With `COc1ccc(C(=O)n2c(SC)nc3cc4c(cc32)OCCO4)cc1`, the pIC50 was 4.46. Under setting [1], this molecule had a pIC50 below 4.00. The same molecule had an IC90 under setting [2] above 100 µM. In addition, the IC90 under setting [3] was above 100 µM.
Consider `CC(/C=N/NC(=O)c1cc(-c2cccs2)[nH]n1)=C\c1ccccc1`, for which the IC50 is > 100 µM (inactive). The same molecule had a pIC50 under setting [1] below 4.00. The molecule further had an IC90 under setting [2] above 100 µM. The IC90 under setting [3] was above 100 µM.
For the molecule `CCOC(=O)c1c(C)[nH]c(C(=O)COC(=O)CCC2CCCC2)c1C`, the IC50 was > 100 µM (inactive). In addition, under setting [1], the pIC50 is below 4.00. Besides, the IC90 under setting [2] is above 100 µM. For the same molecule, the IC90 under setting [3] is above 100 µM.
For the molecule `O=C(NCc1nc2ncc(Br)cc2[nH]1)c1ccccc1`, the IC50 is 49.2 µM (inactive). Also, the pIC50 under setting [1] is 4.03. The same molecule gave an IC90 under setting [2] above 100 µM. Further, the IC90 under setting [3] was determined as 54.9 µM.
`O=C(COc1cccc2cccnc12)N/N=C/c1ccc(O)cc1`: the pIC50 is 4.57. This molecule also had a pIC50 under setting [1] below 4.00. Further, the IC90 under setting [2] is above 100 µM. The same molecule returned an IC90 under setting [3] above 50 µM.
Take `Cc1cccc(Nc2nnc(SCC(=O)Nc3ncc(C(F)(F)F)cc3Cl)s2)c1C`: the IC50 is 7.31 µM (inactive). Besides, the pIC50 under setting [1] is 4.87. Under setting [2], this molecule registered an IC90 above 100 µM. Further, the IC90 under setting [3] was found to be 21.5 µM.
For the molecule `O=C(CC1SC(=O)NC1=O)Oc1ccc(/C=N/NC(=O)c2ccccc2O)cc1` (configuration not stated), the pIC50 was 5.19. The molecule further had a pIC50 under setting [1] of 4.38. Moreover, the IC90 under setting [2] was above 100 µM. The molecule further gave an IC90 under setting [3] above 100 µM.
